Patent publication US8404803B2, “Cancer-associated antigen analogue peptides and uses thereof” (Chugai Seiyaku Kabushiki Kaisha, priority 2005, dated 2013)

Key:
Type in all cases: cell-based, human
[1] = system: CD4-positive/IL-4-producing T cells; experiment: Flow cytometry detection of CD4-positive/IL-4-positive T cells in peptide-stimulated mononuclear cell samples; details: for frequency of CD4-positive/IL-4-producing T cells at the time of epitope determination: FIG. 14; for CD4-positive/IL-4-positive frequencies, mean ± standard deviation: epitope determination, patient's mononuclear cell samples (FIG. 14); for CD4+ IL-4+ number of positive samples/tested samples: mononuclear cell samples cultured 48 hours with peptide and IL-2; for CD4+ IL-4+ number of positive samples/tested samples / CD4+ IL-4+ number of positive samples/tested samples × 100 (%): positive sample > mean of control + 2 × SD (OVCA10-MNC group, 1.148%); for frequency of CD4-positive/IL-4-positive T cells at the time of epitope determination: FIG. 13, IL-2 and peptide added
Description: (§1) All operations concerning cell culture were performed aseptically. First, human peripheral mononuclear cell fractions (comprising T cells, B cells, macrophages and such; hereinafter referred to as “mononuclear cell samples”) were prepared from the blood samples by density gradient centrifugation. Next, these mononuclear cells were suspended at 1×10^5 cell/ml in complete media having the following composition: • Complete Medium: RPMI1640 culture medium (Gibco Laboratories Inc., Grand Island, N.Y.) to which 10% fetal bovine serum (Cell Culture Laboratories, Cleveland, Ohio), 0.2 mM L-glutamine, 100 U/mL penicillin, 100 μg/mL streptomycin (Gibco Laboratories Inc.), and 0.2 ng/mL recombinant human IL-2 (Dainippon Pharmaceutical Co., Tokyo, Japan) have been mixed.
(§2) Theses mononuclear cell samples were placed still in V-bottomed 96-well tissue culture plastic plates (Flow Laboratories Inc., Horsham, Pa.) in the presence and absence of peptides, and cultured for 48 hours at 37° C. in a CO2 culture apparatus (Sanyo Medica, Osaka, Japan).
(§3) A number of mouse-derived anti-human specific monoclonal antibodies with different fluorescences (hereinafter referred to as ‘monoclonal antibodies’) were used to simultaneously analyze by double-staining the CD markers CD4 and CD8, which are on the T cell membranes, and the cytokines within the T cells. As the monoclonal antibodies, products labeled with either fluorescent substance phycoerythrin (hereinafter ‘PE’) or fluorescein isothiocyanate (hereinafter ‘FITC’) were used (Miltenyi Biotec, Glandbach, Germany). For detection, a flow cytometry apparatus FACScan (Becton Dickinson) was used to measure the frequency of cells to which the monoclonal antibodies had bound. Positive cells are automatically detected by the flow cytometry apparatus.
(§4) Since positive cells cannot be identified after the cytokines have been secreted to the outside of the cells, detection was performed at a stage where the cytokines are inside the cells. Therefore, the Cytofix/Cytoperm Kit (Pharmingen, San Diego, Calif.) was used for the analysis, using methods recommended by the manufacturer and a positive control for detection recommended by the kit (Prussin C, Metcalfe D, Detection of intracytoplasmic cytokine using flow cytometry and directly conjugated anti-cytokine antibodies, J Immunol Meth. 188: 117-128, 1995). Specifically, brefeldin A (Pharmingen, San Diego, Calif.) was added at 0.7 μl/1 ml/well to stop protein production in the Golgi apparatus, and the peptide-stimulated mononuclear cell samples were treated at 37° C. for two hours. Next, the culture plates were placed on ice and the reaction was stopped by adding physiological saline at 4° C. The mononuclear cell samples were transferred into 15 ml tubes as though by washing with the physiological saline at 4° C., and were then centrifuged at 1600 rpm for ten minutes to remove the supernatant.
(§5) First, to dye CD4s on the cell surface, 10 μl of FITC-labeled mouse anti-human CD4 was added, with CD8 monoclonal antibody as a control, and this was reacted at 4° C. for 30 minutes. The cells were then separated with 0.5% bovine serum albumin/physiological saline at 4° C., then 0.5% bovine serum albumin/physiological saline at 4° C. was added thereto, and this was centrifuged at 1600 rpm for ten minutes at 4° C. to remove the supernatant.
(§6) Next, the mononuclear cell samples were fixed and their cell membranes were permeabilized. The cells were suspended in 250 μl of Cytofix/Cytoperm (Pharmingen) solution and reacted at 4° C. for 20 minutes. 10 μl of the aforementioned fluorescently labeled anti-IFNγ monoclonal antibody or anti-IL-4 monoclonal antibody was added to these mononuclear cell samples and reacted at 4° C. for 30 minutes. Then, the cells were separated by adding 0.5% bovine serum albumin/physiological saline at 4° C., and 0.5% BSA/PBS at 4° C. was further added thereto. After centrifugation at 1600 rpm for ten minutes at 4° C., the supernatant was removed. […]

[2] = system: CD4-positive/IFNγ-producing T cells; experiment: Flow cytometry detection of CD4-positive/IFNγ-positive T cells in peptide-stimulated mononuclear cell samples; details: for frequency of CD4-positive/IFNγ-producing T cells at the time of epitope determination: FIG. 16; for CD4-positive/IFNγ expression-positive frequencies, mean ± standard deviation: epitope determination, patient's mononuclear cell samples (FIG. 16); for CD4+ IFNγ+ number of positive samples/tested samples: mononuclear cell samples cultured 48 hours with peptide and IL-2; for CD4+ IFNγ+ number of positive samples/tested samples / CD4+ IFNγ+ number of positive samples/tested samples × 100 (%): positive sample > mean of control + 2 × SD (OVCA10-MNC group, 1.378%); for frequency of CD4-positive/IFNγ-positive T cells at the time of epitope determination: FIG. 15, IL-2 and peptide added
Description: as §1, §2, §3, §4, §5, §6

CD4-positive T cells = experiment: Analysis of the CD4-positive T cell epitope (T cells positive for IL-4 or IFNγ); details: peptides with ten amino acid residues reproducing the MUC16 primary sequence
Description: The results were recorded as: number of double staining-positive cells/total number of counted mononuclear cells ×100=positive cell frequency (%). Furthermore, peptide antigen-specific T cell reactions were determined to be positive when the individual frequencies of positive cells in the mononuclear cell samples were the same as or greater than the mean plus two standard deviations (mean+2SD) of the negative control group, where the negative control was a mononuclear cell sample group that had been stimulated with analogue peptide (OVCA10 stimulation). In addition, each of the peptide-stimulated groups were compared by using t-tests to measure the significant difference.
Next, to determine the T cell epitope (based not on the analogues but on the original sequence), the present inventors went back to the original amino acid sequence of the 11-times repeat sequences of MUC16 from which the 30 amino acid residue sequence: […] (SEQ ID NO: 45) common to OVCA11 and OVCA12 was derived. Furthermore, the sequence was divided into lots of ten amino acid residues to prepare OVCA101 (SEQ ID NO: 4), 102 (SEQ ID NO: 5), 103 (SEQ ID NO: 6), 104 (SEQ ID NO: 7), 105 (SEQ ID NO: 8), 106 (SEQ ID NO: 9), 107 (SEQ ID NO: 2), 108 (SEQ ID NO: 3), 109, 110, 111, 112, 113, 114, 115 (SEQ ID NO: 10) (FIG. 5), and T cells positive for IL-4 or IFNγ were detected using a method similar to the above.

[3] = system: CD4-positive/TNFα-positive T cells; experiment: Flow cytometry detection of CD4 and TNFα in OVCA11-stimulated T cells; details: typical example, FIG. 12; after OVCA11 stimulation (0.44% before)
Text: as §3
(§7) Since positive cells cannot be identified after the cytokines have been secreted to the outside of the cells, detection was performed at a stage where the cytokines are inside the cells. […]
(§8) T cells activated in an antigen-specific manner are known to produce tumor necrosis factor α (TNFα) when they injure target cells, such as tumor cells. Therefore, the OVCA11-stimulated T cells obtained in [Example 3] were analyzed by flow cytometry to determine whether they indeed produced TNFα, using a similar method to [Example 3] and combinations of CD4 and TNFα, and CD8 and TNFα.

[4] = system: CD8-positive/TNFα-positive T cells; experiment: Flow cytometry detection of CD8 and TNFα in OVCA11-stimulated T cells; details: typical example, FIG. 12; after OVCA11 stimulation (0.28% before)
Text: as §3, §7, §8

[5] = typical example of flow cytometry

| Sequence | frequency of CD4-positive/IL-4-producing T cells at the time of epitope determination ([1]; peptide 15 μM) | CD4-positive/IL-4-positive frequencies, mean ± standard deviation ([1]; peptide 15 μM) [%] | CD4+ IL-4+ number of positive samples/tested samples [1] | CD4+ IL-4+ number of positive samples/tested samples × 100 (%) [1] [%] | frequency of CD4-positive/IL-4-positive T cells at the time of epitope determination [1, 5] [%] | frequency of CD4-positive/IFNγ-producing T cells at the time of epitope determination ([2]; peptide 15 μM) | CD4-positive/IFNγ expression-positive frequencies, mean ± standard deviation ([2]; peptide 15 μM) [%] | CD4+ IFNγ+ number of positive samples/tested samples [2] | CD4+ IFNγ+ number of positive samples/tested samples × 100 (%) [2] [%] | frequency of CD4-positive/IFNγ-positive T cells at the time of epitope determination [2, 5] [%] | recognized by CD4-positive T cells (CD4-positive T cells) | further results |
| --- | --- | --- | --- | --- | --- | --- | --- | --- | --- | --- | --- | --- |
| PFTLNFTITN (listed as Homo sapiens) [OVCA107] | High frequency cases could be detected | 8.036±12.870 | 5/9 | 55.6 | 6.32 | High frequency cases could be detected | 7.626±12.448 | 3/8 | 37.5 | 2.10 | recognized by CD4-positive T cells |  |
| GHTAPGPLLVPFTLNFTITN (listed as Homo sapiens) [OVCA11] |  |  | 27/32 | 84.4 |  |  |  | 26/33 | 78.8 |  |  | frequency of CD4-positive/IL-4-producing T cells compared to groups to which OVCA10 was added ([1]; FIG. 8, peptide 15 μM, statistically significant difference): higher; frequency of CD4-positive/IL-4-positive cells, mean±standard deviation ([1]; all the analyzed mononuclear cell samples (FIG. 8), peptide 15 μM): 4.314±2.805%; average number of IL-4-positive cells ([1]; healthy group): 4.89%; CD4+ IL-4+ number of positive samples/tested samples ([1]; listed as OVCA 11): 27 of the 32; average number of IL-4-positive cells ([1]; patient group): 4.12%; CD4+ IL-4+ number of positive samples/tested samples × 100 (%) ([1]; listed as OVCA 11): 84.4%; frequency of CD4-positive/IL-4-positive T cells ([1]; typical example of flow cytometry, FIGS. 6 and 7, IL-2 and analogue peptide added): 7.06%; frequency of CD4-positive/IFNγ-producing T cells compared to groups to which OVCA10 was added ([2]; FIG. 11, peptide 15 μM, statistically significant difference): higher; frequency of CD4-positive/INFγ-positive cells, mean±standard deviation ([2]; all of the analyzed mononuclear cell samples (FIG. 11), peptide 15 μM): 3.037±2.234%; average number of IFNγ-positive cells ([2]; healthy group): 3.48%; CD4+ IFNγ+ number of positive samples/tested samples ([2]; listed as OVCA 11): 26 of the 33; average number of IFNγ-positive cells ([2]; patient group): 2.85%; CD4+ IFNγ+ number of positive samples/tested samples × 100 (%) ([2]; listed as OVCA 11): 78.8%; frequency of CD4-positive/IFNγ-positive T cells ([2]; typical example of flow cytometry, FIGS. 9 and 10, IL-2 and analogue peptide added): 3.12%; frequency of CD4-positive/TNFα-positive T cells [3]: 5.76%; frequency of CD8-positive/TNFα-positive T cells [4]: 3.98% |
| LFTLNPTITN [OVCA108] | High frequency cases could be detected | 6.471±13.319 | 5/9 | 55.6 | 1.17 | High frequency cases could be detected | 8.963±19.939 | 2/8 | 25.0 | 1.27 | recognized by CD4-positive T cells |  |
